From patent publication US20260144769A1, “4-PHENYLBUTYRATE RESTORED GABA UPTAKE AND REDUCED SEIZURES IN SLC6A1 VARIANT-MEDIATED DISORDERS” (Vanderbilt University, priority 2022, published 2026)

Target: T1, GAT-1 (Mus musculus, UniProt P31648)
T1 construct: endogenous in cells; host or cells: primary cortical astrocytes from wild-type littermate pups (C57BL/6J background), passage 2
Assay: 3H GABA uptake, cortical astrocytes cultured from wildtype pups
Type: cell-based
Conditions: wt astrocytes (pooled from two mouse lines); PBA 2 mM, 24 hr; SNAP5114 30 μM
Experimental: Mouse cortical astrocytes or neurons were cultured from postnatal pus at day 0-3 days old for astrocytes and day 0 for neurons from the SLC6A1^+/A288V or SLC6A1^+/S295L mouse line. FIGS. 7A-B show astrocytes under passage 2 were grown in […] dishes and passaged into 35-mm^2 dishes before GABA uptake assay.
FIGS. 7C-D show neurons directly cultured in the 35-mm^2 dishes and GABA uptake was evaluated between day 15-17 days after culture. CI-966 (50 μM) and NNC711 (35 μM) was applied 30 min before preincubation and removed during preincubation. GAT-3 inhibitor SNAP5114 (30 μM) was applied during GABA uptake to make sure only GAT-1 activity was measured. The wildtype astrocytes (FIGS. 7A-B) or cortical neurons (FIGS. 7C-D) of either SLC6A1^+/A288V or SLC6A1^+/S295L were taken as 1. The cultures derived from each mutant mouse was compared to the culture from its own wildtype littermates. […] The wildtype data were pooled from two mouse lines. […] The graph represents the relative GABA uptake level normalized to cells of its own genotype treated with DMSO. CI-966 (50 μM) or NNC-711 (35 μM) was applied 30 min before preincubation and removed during preincubation. Two-way analysis of variance followed by Bonferroni multiple comparison test was used. Values were expressed as mean±S.E.M. In FIG. 7A and FIG. 7C, ***p<0.001 vs. wt; § § § P<0.001 S295L vs. A288V. […]

GABA uptake activity normalized to its own DMSO condition: 1.22±0.058
SMILES: O=C(O)CCCc1ccccc1 [PBA, 4-phenylbutyric acid]
